Experimental findings from patent US20250026770A1, “NOVEL BORONSOME FACILITATING DIAGNOSIS AND TREATMENT” (PEKING UNIVERSITY, priority 2021, published 2025) are described below.

The structures appear in SMILES notation.

In the experiment the test system is DNA repair system. The experiment in a line: γ-h2ax staining. The source says: In terms of integration of radiotherapy and chemotherapy, the preferred drug for encapsulation was Doxorubicin. […] Subsequently, we considered that if we could start from the principles of BNCT and selected individual drugs that disrupt the DNA replication process, its efficacy could be further enhanced. Therefore, a poly(ADP-ribose)polymerase (PARP) inhibitor (olaparib) was selected.

For `O=C(c1cc(Cc2n[nH]c(=O)c3ccccc23)ccc1F)N1CCN(C(=O)C2CC2)CC1` [olaparib], the “Interference on the DNA repair system” value is “verified its interference on the DNA repair system”.
